According to patent publication US10253002B2, “Compounds and methods of treating infections” (Neoculi Pty Ltd., priority 2013, dated 2019):
Converted amounts (≈) assume the structure as drawn. “And” between values parts separate entries of the source, which are not always exact repeats. Equal entries are not always repeated. Where two headings read alike, the source gives them in different places.

Columns and labels:
VRE = test: Broth microdilution MIC, Example 7 (NCL812 and analogues); assay type: cell-based, Enterococcus spp.; conditions: for activity against VRE among analogues: MIC testing, two VRE strains; for MIC (μg/ml) at 24 hours, VRE 1: isolate VRE 1; for MIC (μg/ml) at 24 hours, VRE 1 / MIC (μg/ml) at 24 hours, VRE 2: 1st and 2nd replicate rows; for MIC (μg/ml) at 24 hours, VRE 2: isolate VRE 2; for MIC: Enterococcus, VRE
Outline: (§1)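 Turbidity read visually and then at 600 nm defined the MIC (μg/ml), comparing drug-containing wells with a growth-control well lacking antimicrobial. Testing followed the CLSI broth microdilution method, in duplicate, using two strains per organism group.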

Pseudomonas aeruginosa = test: as above; assay type: cell-based; conditions: for MIC (μg/ml) at 24 hours Pseudomonas #008: Pseudomonas #008, 24 hours
MRSA = test: as above; assay type: cell-based, Staphylococcus aureus; conditions: for activity against MRSA among analogues: MIC testing, two MRSA strains; for MIC (μg/ml) at 24 hours, MRSA 1: isolate MRSA 1; for MIC (μg/ml) at 24 hours, MRSA 1 / MIC (μg/ml) at 24 hours, MRSA 2: 1st and 2nd replicate rows; for MIC (μg/ml) at 24 hours, MRSA 2: isolate MRSA 2; for MIC: Staphylococcus aureus, MRSA
Outline: as §1

[1] = tested on: Gram-negative bacteria (E. coli and Pseudomonas aeruginosa); test: Testing of NCL812 analogues, Gram-negative antibacterial activity; assay type: cell-based; conditions: MIC testing
Description: Minimum inhibitory concentrations (μg/ml) were determined using the broth microdilution method recommended by the Clinical and Laboratory Standards Institute (CLSI). MIC breakpoints were determined by visual assessment and then confirmed using an ELISA plate reader, measuring absorbance levels at 600 nm. Bacterial growth (turbidity) in the wells with antimicrobial was compared with the amount of growth (turbidity) in the growth-control well (containing no antimicrobial). All isolates were tested in duplicate, if there was a difference of greater than one two-fold dilution in the results, the test was repeated a third time. The purity of the isolates was closely monitored during testing by subculturing the prepared bacterial inoculum onto SBA (sheep blood agar). The MICs of the control strains for the antimicrobial ampicillin were determined for each testing run as an internal quality control. The MIC50, […] and MIC range (minimum and maximum) were calculated for each of the bacterial groups.
MICs were determined against two MRSA strains, two VRE strains and one strain each of E. coli and Pseudomonas aeruginosa.

Escherichia coli = test: Broth microdilution MIC, Example 7 (NCL812 and analogues); assay type: cell-based; conditions: for MIC (μg/ml) at 24 hours, E. coli: 1st and 2nd replicate rows; for MIC (μg/ml) at 24 hours E. coli ATCC25922: E. coli ATCC25922, 24 hours
[2] = Bioassay ranking of the analogues tested; conditions: M + R (MRSA and VRE combined)
E. faecalis #32 = test: Broth microdilution MIC, Example 7 (NCL analogues), Table 42; assay type: cell-based, Enterococcus faecalis; conditions: E. faecalis #32, 24 hours
S. aureus ATCC29213 = test: as above; assay type: cell-based, Staphylococcus aureus; conditions: S. aureus ATCC29213, 24 hours
[3] = 24 hours, 1st and 2nd replicate rows

MIC (μg/ml) at 24 hours Pseudomonas #008 (Pseudomonas aeruginosa) | MIC (μg/ml) at 24 hours E. faecalis #32 (E. faecalis #32) | MIC (μg/ml) at 24 hours E. coli ATCC25922 (Escherichia coli) | MIC (μg/ml) at 24 hours S. aureus ATCC29213 (S. aureus ATCC29213) | Compound | activity against VRE among analogues (VRE) | activity against MRSA among analogues (MRSA) | level of Gram-negative antibacterial activity among analogues [1] | also measured
– | – | – | – | Cl.N=C(N)N/N=C/c1ccc(Cl)cc1 [NCL030] | greatest activity | greatest activity | highest level of Gram-negative antibacterial activity | MIC (μg/ml) at 24 hours, VRE 1 (VRE; 24 hours): 64 µg/mL; MIC (μg/ml) at 24 hours, VRE 2 (VRE; 24 hours): 64 µg/mL; MIC (μg/ml) at 24 hours, P. aeruginosa (Pseudomonas aeruginosa; [3]): 128 µg/mL; MIC (μg/ml) at 24 hours, MRSA 1 (MRSA; 24 hours): 128 µg/mL; MIC (μg/ml) at 24 hours, MRSA 2 (MRSA; 24 hours): 128 µg/mL; MIC (μg/ml) at 24 hours, E. coli (Escherichia coli; 24 hours): >128 µg/mL
– | – | – | – | Cl.N=C(N)N/N=C/c1ccc(C(F)(F)F)cc1 [NCL041] | greatest activity | greatest activity | highest level of Gram-negative antibacterial activity | MIC (μg/ml) at 24 hours, VRE 1 (VRE; 24 hours): 64 µg/mL; MIC (μg/ml) at 24 hours, VRE 2 (VRE; 24 hours): 64 µg/mL; MIC (μg/ml) at 24 hours, P. aeruginosa (Pseudomonas aeruginosa; [3]): 128 µg/mL; MIC (μg/ml) at 24 hours, MRSA 1 (MRSA; 24 hours): 64 µg/mL; MIC (μg/ml) at 24 hours, MRSA 2 (MRSA; 24 hours): 64 µg/mL; MIC (μg/ml) at 24 hours, E. coli (Escherichia coli; 24 hours): 128 µg/mL and 64 µg/mL
– | – | – | – | Cl.N=C(N)N/N=C/c1cccc(C(F)(F)F)c1 [NCL043] | greatest activity | greatest activity | highest level of Gram-negative antibacterial activity | MIC (μg/ml) at 24 hours, VRE 1 (VRE; 24 hours): 128 µg/mL; MIC (μg/ml) at 24 hours, VRE 2 (VRE; 24 hours): 128 µg/mL and 64 µg/mL; MIC (μg/ml) at 24 hours, P. aeruginosa (Pseudomonas aeruginosa; [3]): 128 µg/mL; MIC (μg/ml) at 24 hours, MRSA 1 (MRSA; 24 hours): 128 µg/mL; MIC (μg/ml) at 24 hours, MRSA 2 (MRSA; 24 hours): 128 µg/mL; MIC (μg/ml) at 24 hours, E. coli (Escherichia coli; 24 hours): 128 µg/mL
– | – | – | – | Cc1ccc(/C=N/NC(=N)N)cc1.Cl [NCL044] | greatest activity | greatest activity | highest level of Gram-negative antibacterial activity | MIC (μg/ml) at 24 hours, VRE 1 (VRE; 24 hours): 128 µg/mL; MIC (μg/ml) at 24 hours, VRE 2 (VRE; 24 hours): 128 µg/mL; MIC (μg/ml) at 24 hours, P. aeruginosa (Pseudomonas aeruginosa; [3]): 128 µg/mL; MIC (μg/ml) at 24 hours, MRSA 1 (MRSA; 24 hours): 128 µg/mL; MIC (μg/ml) at 24 hours, MRSA 2 (MRSA; 24 hours): 128 µg/mL; MIC (μg/ml) at 24 hours, E. coli (Escherichia coli; 24 hours): >128 µg/mL
– | – | – | – | Cl.N=C(N)N/N=C/c1cccc(Cl)c1 [NCL052] | greatest activity | greatest activity | highest level of Gram-negative antibacterial activity | MIC (μg/ml) at 24 hours, VRE 1 (VRE; 24 hours): 128 µg/mL; MIC (μg/ml) at 24 hours, VRE 2 (VRE; 24 hours): 128 µg/mL; MIC (μg/ml) at 24 hours, P. aeruginosa (Pseudomonas aeruginosa; [3]): 128 µg/mL; MIC (μg/ml) at 24 hours, MRSA 1 (MRSA; 24 hours): 128 µg/mL; MIC (μg/ml) at 24 hours, MRSA 2 (MRSA; 24 hours): 128 µg/mL; MIC (μg/ml) at 24 hours, E. coli (Escherichia coli; 24 hours): >128 µg/mL
– | – | – | – | Cl.N=C(N)NN=Cc1ccc(F)cc1 [NCL053] | – | – | highest level of Gram-negative antibacterial activity | MIC (μg/ml) at 24 hours, VRE 1 (VRE; 24 hours): >128 µg/mL; MIC (μg/ml) at 24 hours, VRE 2 (VRE; 24 hours): >128 µg/mL; MIC (μg/ml) at 24 hours, P. aeruginosa (Pseudomonas aeruginosa; [3]): 128 µg/mL; MIC (μg/ml) at 24 hours, MRSA 1 (MRSA; 24 hours): >128 µg/mL; MIC (μg/ml) at 24 hours, MRSA 2 (MRSA; 24 hours): >128 µg/mL; MIC (μg/ml) at 24 hours, E. coli (Escherichia coli; 24 hours): >128 µg/mL
– | – | – | – | Cl.N=C(N/N=C/c1cc(O)c(O)c(O)c1)N/N=C/c1cc(O)c(O)c(O)c1 [NCL097, 2,2′-bis[(3,4,5-trihydroxyphenyl)methylene]carbonimidic Dihydrazide Hydrochloride] | greatest activity | greatest activity | highest level of Gram-negative antibacterial activity | MIC (VRE; 24 h, read-out: MIC (μg/ml) at 24 hours, VRE 1, VRE 1, 24 hours, duplicate lines per compound): 32 µg/mL; MIC (VRE; 24 h, read-out: MIC (μg/ml) at 24 hours, VRE 2, VRE 2, 24 hours, duplicate lines per compound): 32 µg/mL; MIC (μg/ml) at 24 hours, P. aeruginosa (Pseudomonas aeruginosa; P. aeruginosa, 24 hours, duplicate lines per compound, Hydrochloride): >128 µg/mL; MIC (Pseudomonas aeruginosa; Pseudomonas aeruginosa, 24 h, read-out: MIC (μg/ml) at 24 hours, P. aeruginosa, 24 hours, duplicate lines per compound): 128 µg/mL; MIC (MRSA; 24 h, read-out: MIC (μg/ml) at 24 hours, MRSA 1, MRSA 1, 24 hours, duplicate lines per compound): 128 µg/mL; MIC (MRSA; 24 h, read-out: MIC (μg/ml) at 24 hours, MRSA 2, MRSA 2, 24 hours, duplicate lines per compound): 32 µg/mL; MIC (Escherichia coli; Escherichia coli, read-out: MIC (μg/ml) at 24 hours, E. coli, 24 hours, duplicate lines per compound): > 128 µg/mL
– | – | – | – | CCCC/C(=N\NC(=N)N)c1ccc(Cl)cc1.Cl [NCL188, (E)-2-(1-(4-chlorophenyl)pentylidene)hydrazine-1-carboximidamide Hydrochloride] | greatest activity | greatest activity | highest level of Gram-negative antibacterial activity | MIC (VRE; bioassay ranking, read-out: VRE): 16 µg/mL; M + R [2]: 16 µg/mL; MIC (MRSA; bioassay ranking, read-out: MRSA): 16 µg/mL
>64 µg/mL | 64 µg/mL (≈ 144 µM) | >64 µg/mL | >64 µg/mL | OC/C(=N\Nc1cc(N/N=C(\CO)c2ccc(Cl)cc2)ncn1)c1ccc(Cl)cc1 [NCL 180] | – | – | – | –
>64 µg/mL | >64 µg/mL | >64 µg/mL | >64 µg/mL | Clc1ccc(/C=N/Nc2cc(N/N=C/c3ccc(Cl)cc3)ncn2)cc1 [NCL 181] | – | – | – | –
>64 µg/mL | >64 µg/mL | >64 µg/mL | >64 µg/mL | CC(Nc1cc(Cl)nc(N)n1)c1ccccc1 (stereo not drawn) [NCL 182] | – | – | – | –
>64 µg/mL | >64 µg/mL | >64 µg/mL | >64 µg/mL | CC(Nc1cc(NC(C)c2ccccc2)ncn1)c1ccccc1 (stereo not drawn) [NCL 183] | – | – | – | –
>64 µg/mL | 64 µg/mL (≈ 192 µM) | >64 µg/mL | >64 µg/mL | CC(Nc1cc(NC(C)c2ccccc2)nc(N)n1)c1ccccc1 (stereo not drawn) [NCL 184] | – | – | – | –
>64 µg/mL | >64 µg/mL | >64 µg/mL | >64 µg/mL | C/C(=N\Nc1cc(N/N=C(\C)c2ccc(Cl)cc2)ncn1)c1ccc(Cl)cc1.Cl [NCL 185] | – | – | – | –
>64 µg/mL | >64 µg/mL | >64 µg/mL | >64 µg/mL | CC(Nc1cnc(NC(C)c2ccc(Cl)cc2)cn1)c1ccc(Cl)cc1 (stereo not drawn) [NCL 186] | – | – | – | –
>64 µg/mL | >64 µg/mL | >64 µg/mL | >64 µg/mL | Cl.Clc1ccc(/C=N/Nc2cc(N/N=C/c3ccc(Cl)cc3)ncn2)cc1 [NCL 187] | – | – | – | –
>64 µg/mL | 32 µg/mL | 64 µg/mL | 32 µg/mL | Cl.[H]/N=C(\N)NN=C(CCCC)c1ccc(Cl)cc1 [NCL 188] | – | – | – | –
>64 µg/mL | >64 µg/mL | >64 µg/mL | >64 µg/mL | Cl.OC/C(=N\Nc1cc(N/N=C(\CO)c2ccc(Cl)cc2)ncn1)c1ccc(Cl)cc1 [NCL 189] | – | – | – | –
>64 µg/mL | 64 µg/mL | >64 µg/mL | 32 µg/mL and 64 µg/mL | Cl.[H]/N=C(/N)NN=C(CNN)c1ccc(Cl)cc1 [NCL 190] | – | – | – | –
>64 µg/mL | >64 µg/mL | >64 µg/mL | >64 µg/mL | C/C(=N\NC(=N)N)c1ccc(Cl)cc1.Cl [NCL 191] | – | – | – | –
>64 µg/mL | >64 µg/mL | >64 µg/mL | >64 µg/mL | Cl.N=C(N)NN=C(C(=O)O)c1ccccc1 [NCL 192] | – | – | – | –
